Data published in patent US20200405697A1, “Antitumor Agent” (Taiho Pharmaceutical Co., Ltd, priority 2017, published 2020).

Biological target: T1, human RNR (histidine tagged human M1 and human M2 proteins) (Homo sapiens, UniProt P23921)
T1 construct: made in house; host or cells: Escherichia coli
T1 sequence (P23921 1-792): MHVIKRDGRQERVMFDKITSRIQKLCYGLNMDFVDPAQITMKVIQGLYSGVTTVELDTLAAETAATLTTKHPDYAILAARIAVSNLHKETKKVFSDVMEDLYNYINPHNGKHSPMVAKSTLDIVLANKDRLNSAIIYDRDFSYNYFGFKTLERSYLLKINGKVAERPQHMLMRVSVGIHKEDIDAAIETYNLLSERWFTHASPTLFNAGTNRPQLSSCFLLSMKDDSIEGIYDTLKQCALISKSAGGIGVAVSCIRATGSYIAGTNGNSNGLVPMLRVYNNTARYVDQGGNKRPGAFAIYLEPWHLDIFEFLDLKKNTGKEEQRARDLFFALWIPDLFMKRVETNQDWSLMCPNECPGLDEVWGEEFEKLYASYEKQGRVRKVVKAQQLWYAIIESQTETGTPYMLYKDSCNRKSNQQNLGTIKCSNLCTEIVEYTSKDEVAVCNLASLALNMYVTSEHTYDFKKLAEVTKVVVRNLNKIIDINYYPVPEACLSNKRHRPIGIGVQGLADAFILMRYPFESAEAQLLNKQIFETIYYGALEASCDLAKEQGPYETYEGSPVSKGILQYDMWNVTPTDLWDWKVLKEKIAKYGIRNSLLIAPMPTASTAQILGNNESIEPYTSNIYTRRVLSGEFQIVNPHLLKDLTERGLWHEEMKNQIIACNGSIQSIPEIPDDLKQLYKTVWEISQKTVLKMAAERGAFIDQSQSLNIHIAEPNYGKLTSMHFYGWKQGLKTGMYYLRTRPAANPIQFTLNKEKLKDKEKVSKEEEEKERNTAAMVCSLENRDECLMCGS
Test: Human RNR inhibition effect (dCDP formation from CDP)
Type: biochemical
Conditions: 10 μM CDP, 37° C. for 30 minutes, read-out: RNR inhibitory activity IC50
In short: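 His-tagged human M1 (isoform 1) and N-terminal 59-aa-truncated M2 (isoform 2), E. coli-expressed, Ni-purified, preincubated 20 min with compound (1% DMSO). Reaction with 10 μM CDP, 2 mM ATP, 0.24 mM NADPH, 6 mM DTT, 4 mM Mg acetate, 100 mM KCl, 50 mM HEPES pH 7.2, 30 min at 37° C. dCDP formed quantified by reverse-phase HPLC after heat stop.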

Row | Structure (SMILES) | IC50
1 | Cc1ccc(F)c([C@@H](C)[C@H](NS(=O)(=O)c2ccc(Cl)cc2C(=O)NOCc2ccccc2)c2n[nH]c(=O)o2)c1C [Example 282, N-(benzyloxy)-5-chloro-2-(N-((1S,2R)-2-(6-fluoro-2,3-dimethylphenyl)-1-(5-oxo-4,5-dihydro-1,3-oxadiazol-2-yl)propyl)sulfamoyl)benzamide] | 910 nM
2 | Cc1ccc(F)c([C@@H](C)[C@H](NS(=O)(=O)c2ccc(Cl)c(C(=O)N3CCC(N)C3)n2)c2n[nH]c(=O)o2)c1C (stereo partly drawn) [Example 283, 6-(3-aminopyrrolidine-1-carbonyl)-5-chloro-N-((1S,2R)-2-(6-fluoro-2,3-dimethylphenyl)-1-(5-oxo-4,5-dihydro-1,3,4-oxadiazol-2-yl)propyl)pyridine-2-sulfonamide] | 150 nM
3 | CC(=O)N1CCOc2c(S(=O)(=O)N[C@H](c3n[nH]c(=O)o3)[C@H](C)c3cccc(C)c3C)ccc(Cl)c21 [Example 284, 4-acetyl-5-chloro-N-((1S,2R)-2-(2,3-dimethylphenyl)-1-(5-oxo-4,5-dihydro-1,3,4-oxadiazol-2-yl)propyl)-3,4-dihydro-2H-benzo[b][1,4]oxazine-8-sulfonamide] | 560 nM
4 | Cc1ccc(F)c([C@@H](C)[C@H](NS(=O)(=O)c2ccc(Cl)cc2C(=O)NO)c2n[nH]c(=O)o2)c1C [Example 286, 5-chloro-2-(N-((1S,2R)-2-(6-fluoro-2,3-dimethylphenyl)-1-(5-oxo-4,5-dihydro-1,3,4-oxadiazol-2-yl)propyl)sulfamoyl)-N-hydroxybenzamide] | 70 nM
5 | Cc1ccc(F)c([C@@H](C)[C@H](NS(=O)(=O)c2ccc(Cl)cc2C(N)=S)c2n[nH]c(=O)o2)c1C [Example 287, 5-chloro-2-(N-((1S,2R)-2-(6-fluoro-2,3-dimethylphenyl)-1-(5-oxo-4,5-dihydro-1,3,4-oxadiazol-2-yl)propyl)sulfamoyl)benzothioamide] | 50 nM
6 | Cc1c(Cl)ccc(F)c1[C@@H](C)[C@H](NS(=O)(=O)c1ccc(Cl)c2c1OCCN2C)c1n[nH]c(=O)o1 [Example 289, 5-chloro-N-((1S,2R)-2-(3-chloro-6-fluoro-2-methylphenyl)-1-(5-oxo-4,5-dihydro-1,3,4-oxadiazol-2-yl)propyl)-4-methyl-3,4-dihydro-2H-benzo[b][1,4]oxazine-8-sulfonamide] | 130 nM
7 | COc1ccc(-c2ccc(F)c([C@@H](C)[C@H](NS(=O)(=O)c3ccc(Cl)cc3OC)c3n[nH]c(=O)o3)c2C)cc1 [Example 298, 4-chloro-N-((1S,2R)-2-(4-fluoro-4′-methoxy-2-methyl-[1,1′-biphenyl]-3-yl)-1-(5-oxo-4,5-dihydro-1,3,4-oxadiazol-2-yl)propyl)-2-methoxybenzenesulfonamide] | 300 nM
8 | COc1cc(Cl)ccc1S(=O)(=O)N[C@H](c1n[nH]c(=O)o1)[C@H](C)c1c(F)ccc(-c2cc(F)cc(F)c2)c1C [Example 299, 4-chloro-2-methoxy-N-((1S,2R)-1-(5-oxo-4,5-dihydro-1,3,4-oxadiazol-2-yl)-2-(3′,4,5′-trifluoro-2-methyl-[1,1′-biphenyl]-3-yl)propyl)benzenesulfonamide] | 940 nM
9 | COc1cc(Cl)ccc1S(=O)(=O)N[C@H](c1n[nH]c(=O)o1)[C@H](C)c1c(F)ccc(-c2cccnc2)c1C [Example 300, 4-chloro-N-((1S,2R)-2-(6-fluoro-2-methyl-3-(pyridin-3-yl)phenyl)-1-(5-oxo-4,5-dihydro-1,3,4-oxadiazol-2-yl)propyl)-2-methoxybenzenesulfonamide] | 340 nM
10 | COc1cc(Cl)ccc1S(=O)(=O)N[C@H](c1n[nH]c(=O)o1)[C@H](C)c1c(F)ccc(-c2ccn(C)n2)c1C [Example 305, 4-chloro-N-((1S,2R)-2-(6-fluoro-2-methyl-3-(1-methyl-1H-pyrazol-3-yl)phenyl)-1-(5-oxo-4,5-dihydro-1,3,4-oxadiazol-2-yl)propyl)-2-methoxybenzenesulfonamide] | 240 nM
11 | COc1cc(Cl)ccc1S(=O)(=O)N[C@H](c1n[nH]c(=O)o1)[C@H](C)c1c(F)ccc(-c2cnn(C)c2)c1C [Example 306, 4-chloro-N-((1S,2R)-2-(6-fluoro-2-methyl-3-(1-methyl-1H-pyrazol-4-yl)phenyl)-1-(5-oxo-4,5-dihydro-1,3,4-oxadiazol-2-yl)propyl)-2-methoxybenzenesulfonamide] | 90 nM
12 | COc1cc(Cl)ccc1S(=O)(=O)N[C@H](c1n[nH]c(=O)o1)[C@H](C)c1c(F)ccc(-c2c[nH]nc2C)c1C [Example 308, 4-chloro-N-((1S,2R)-2-(6-fluoro-2-methyl-3-(3-methyl-1H-pyrazol-4-yl)phenyl)-1-(5-oxo-4,5-dihydro-1,3,4-oxadiazol-2-yl)propyl)-2-methoxybenzenesulfonamide] | 180 nM
13 | COc1cc(Cl)ccc1S(=O)(=O)N[C@H](c1n[nH]c(=O)o1)[C@H](C)c1c(F)ccc(-c2cnn(C3CC3)c2)c1C [Example 311, 4-chloro-N-((1S,2R)-2-(3-(1-cyclopropyl-1H-pyrazol-4-yl)-6-fluoro-2-methylphenyl)-1-(5-oxo-4,5-dihydro-1,3,4-oxadiazol-2-yl)propyl)-2-methoxybenzenesulfonamide] | 220 nM

More lines, in order of falling IC50, values ahead:

Row | IC50 | Structure (SMILES)
14 | 790 nM | Cc1cccc([C@@H](C)[C@H](NS(=O)(=O)c2ccc(Cl)c3c2OCC=C3)c2n[nH]c(=O)o2)c1C [Example 295, 5-chloro-N-((1S,2R)-2-(2,3-dimethylphenyl)-1-(5-oxo-4,5-dihydro-1,3,4-oxadiazol-2-yl)propyl)-2H-chromene-8-sulfonamide]
15 | 490 nM | COc1cc(Cl)ccc1S(=O)(=O)N[C@H](c1n[nH]c(=O)o1)[C@H](C)c1c(F)ccc(-c2ccc(Cl)cc2)c1C [Example 302, 4-chloro-N-((1S,2R)-2-(4′-chloro-4-fluoro-2-methyl-[1,1′-biphenyl]-3-yl)-1-(5-oxo-4,5-dihydro-1,3,4-oxadiazol-2-yl)propyl)-2-methoxybenzenesulfonamide]
16 | 310 nM | Cc1ccc(F)c([C@@H](C)[C@H](NS(=O)(=O)c2ccccc2C(=O)NO)c2n[nH]c(=O)o2)c1C [Example 285, 2-(N-((1S,2R)-2-(6-fluoro-2,3-dimethylphenyl)-1-(5-oxo-4,5-dihydro-1,3,4-oxadiazol-2-yl)propyl)sulfamoyl)-N-hydroxybenzamide]
17 | 290 nM | COc1cc(Cl)ccc1S(=O)(=O)N[C@H](c1n[nH]c(=O)o1)[C@H](C)c1c(F)ccc(-c2cc[nH]n2)c1C [Example 301, 4-chloro-N-((1S,2R)-2-(6-fluoro-2-methyl-3-(1H-pyrazol-3-yl)phenyl)-1-(5-oxo-4,5-dihydro-1,3,4-oxadiazol-2-yl)propyl)-2-methoxybenzenesulfonamide]
18 | 220 nM | COc1cc(Cl)ccc1S(=O)(=O)N[C@H](c1n[nH]c(=O)o1)[C@H](C)c1c(F)ccc(-c2cnn(C3CCC3)c2)c1C [Example 312, 4-chloro-N-((1S,2R)-2-(3-(1-cyclobutyl-1H-pyrazol-4-yl)-6-fluoro-2-methylphenyl)-1-(5-oxo-4,5-dihydro-1,3,4-oxadiazol-2-yl)propyl)-2-methoxybenzenesulfonamide]
19 | 170 nM | CCn1cc(-c2ccc(F)c([C@@H](C)[C@H](NS(=O)(=O)c3ccc(Cl)cc3OC)c3n[nH]c(=O)o3)c2C)cn1 [Example 310, 4-chloro-N-((1S,2R)-2-(3-(1-ethyl-1H-pyrazol-4-yl)-6-fluoro-2-methylphenyl)-1-(5-oxo-4,5-dihydro-1,3,4-oxadiazol-2-yl)propyl)-2-methoxybenzenesulfonamide]
20 | 160 nM | COc1cc(Cl)ccc1S(=O)(=O)N[C@H](c1n[nH]c(=O)o1)[C@H](C)c1c(F)ccc(-c2cn[nH]c2)c1C [Example 303, 4-chloro-N-((1S,2R)-2-(6-fluoro-2-methyl-3-(1H-pyrazol-4-yl)phenyl)-1-(5-oxo-4,5-dihydro-1,3,4-oxadiazol-2-yl)propyl)-2-methoxybenzensulfonamide]
21 | 160 nM | COc1cc(Cl)ccc1S(=O)(=O)N[C@H](c1n[nH]c(=O)o1)[C@H](C)c1c(F)ccc(-c2cnn(C(F)F)c2)c1C [Example 304, 4-chloro-N-((1S,2R)-2-(3-(1-(difluoromethyl)-1H-pyrazol-4-yl)-6-fluoro-2-methylphenyl)-1-(5-oxo-4,5-dihydro-1,3,4-oxadiazol-2-yl)propyl)-2-methoxybenzenesulfonamide]
22 | 110 nM | COc1c(S(=O)(=O)N[C@H](c2n[nH]c(=O)o2)[C@H](C)c2c(F)ccc(C)c2C)ccc(Cl)c1C(C)=O [Example 294, 3-acetyl-4-chloro-N-((1S,2R)-2-(6-fluoro-2,3-dimethylphenyl)-1-(5-oxo-4,5-dihydro-1,3,4-oxadiazol-2-yl)propyl)-2-methoxybenzenesulfonamide]
